Results: patent US7678808B2, “5 HT receptor mediated neurogenesis” (BrainCells, Inc., priority 2006, dated 2010)

Legend:
[1] = test system: human neural stem cells (hNSCs); test: Astrocyte differentiation of hNSCs (GFAP staining); type: cell-based; conditions: hNSC; for EC50: Homo sapiens, Neural stem cell
Procedure: Experiments were carried out as described in Example 1, except the positive control for astrocyte differentiation contained mitogen-free test media with a positive control, and cells were stained with GFAP antibody.
Experiments were carried out as described in Example 2, except the positive control for astrocyte differentiation contained mitogen-free test media with a different positive control.
(§1) Human neural stem cells (hNSCs) were isolated and grown in monolayer culture, plated, treated with varying concentrations of buspirone in the presence or absence of the melatonin agonist melatonin, and stained with TUJ-1 antibody for the detection of neuronal differentiation or GFAP antibody for the detection of astrocyte differentiation, as described above. Mitogen-free test media with a positive control for neuronal differentiation was used along with basal media without growth factors as a negative control.

[2] = test system: human neural stem cells (hNSCs); test: Neuronal differentiation of human neural stem cells (TUJ-1 staining); type: cell-based; conditions: for EC50: Homo sapiens, Neural stem cell, agent alone, data as % of neuronal positive control, basal media subtracted; for EC50 / effect on neuronal differentiation (in words): hNSC; for effect on neuronal differentiation (in words): TUJ-1
Source text: Mitogen-free test media with a positive control was used for neuronal differentiation, and basal media without growth factors served as a negative control.
Mitogen-free test media with a positive control for neuronal differentiation was used, and basal media without growth factors served as a negative control.
as §1
(§2) Human neural stem cells (hNSCs) were isolated and grown in monolayer culture, plated, treated with varying concentrations of a 5-HT3 antagonist and stained with TUJ-1 antibody, as described above. Mitogen-free test media with a positive control for neuronal differentiation was used along with basal media without growth factors as a negative control.
as §2, with “5-HT4 agonist” for “5-HT3 antagonist”
The presence of synergy was determined by use of a combination index (CI). […] The CI is a quantitative measure of the nature of drug interactions, comparing the EC50's of two compounds, when each is assayed alone, to the EC50 of each compound when assayed in combination. The combination index (CI) is equal to the following formula: […]
where C1 and C2 are the concentrations of a first and a second compound, respectively, resulting in 50% activity in neuronal differentiation when assayed in combination; and IC1 and IC2 are the concentrations of each compound resulting in 50% activity when assayed independently.

[3] = agent alone, % of astrocyte positive control, basal media subtracted

| Compound | EC50 [2] | effect on neuronal differentiation (in words) [2] | also measured |
| --- | --- | --- | --- |
| N[C@@H](Cc1c[nH]c2ccc(O)cc12)C(=O)O [5-HTP, 5-hydroxytryptophan] | 12 µM | weakly promoted neuronal differentiation | EC50, astrocyte differentiation [1, 3]: undeterminable; effect on astrocyte differentiation (in words) ([1]; GFAP): no significant increase in astrocyte differentiation above basal media values |
| COc1ccc2cccc(CCNC(C)=O)c2c1 [agomelatine] | 8.7 µM | promotes differentiation of neural stem cells into neurons | – |
| NCC(CC(=O)O)c1ccc(Cl)cc1 (stereo not drawn) [baclofen] | 3.9 µM | – | EC50 [1, 3]: > 31.6 µM |
| C[C@H](CS)C(=O)N1CCC[C@H]1C(=O)O [captopril] | 5.4 µM | – | – |
| NC(=O)N1c2ccccc2C=Cc2ccccc21 [carbemazepine] | 15.7 µM | – | – |
| COc1cc(N)c(Cl)cc1C(=O)NC1CCN(CCCOc2ccc(F)cc2)CC1OC (stereo not drawn) [cisapride] | 7.9 µM | promote differentiation of neural stem cells into neurons | – |
| NCCc1ccc(O)c(O)c1 [dopamine, 4-(2-aminoethyl)benzene-1,2-diol] | – | – | neuronal differentiation, dopamine dose response ([2]; dopamine alone or with 10 μM or 30 μM 5-HTP): did not significantly enhance neuronal differentiation |
| Nc1nc2ncc(CNc3ccc(C(=O)N[C@@H](CCC(=O)O)C(=O)O)cc3)nc2c(=O)[nH]1 [folic acid] | 4.5 µM | – | – |
| NCC1(CC(=O)O)CCCCC1 [gabapentin] | 11.5 µM | – | – |
| CN1C2CCCC1CC(NC(=O)c1nn(C)c3ccccc13)C2 (stereo not drawn) [granisetron] | – | promote differentiation of neural stem cells into neurons | – |
| CC(C)C(=O)c1c(C(C)C)nn2ccccc12 [ibudilast] | 0.72 µM | – | – |
| COC(=O)C(c1ccccc1)C1CCCCN1 (stereo not drawn) [methylphenidate] | 2.2 µM | – | – |
| NC(=O)C[S+]([O-])C(c1ccccc1)c1ccccc1 (stereo not drawn) [modafinil] | 12.5 µM | – | EC50 ([1]; agent alone): > 31.6 µM |
| O=C1CC[C@@]2(O)[C@H]3Cc4ccc(O)c5c4[C@@]2(CCN3CC2CC2)[C@H]1O5 [naltrexone] | 0.39 µM | – | – |
| Cc1nccn1CC1CCc2c(c3ccccc3n2C)C1=O (stereo not drawn) [ondansetron] | 23.9 µM | promote differentiation of neural stem cells into neurons | – |
| CNS(=O)(=O)Cc1ccc2[nH]cc(CCN(C)C)c2c1 [sumatriptan] | 14.9 µM | promotes differentiation of neural stem cells into neurons | – |
| O=C1[C@@H]2[C@H]3CC[C@H](C3)[C@@H]2C(=O)N1CCCCN1CCN(c2ncccn2)CC1 [tandospirone] | 12.1 µM | – | EC50 [1, 3]: 8.69 µM |
